Source: patent publication US10280404B2, “Optimized HCV full-length infectious cell culture systems and applications thereof” (Hvidore Hospital, priority 2014, dated 2019)
“Also recorded” adds a separate entry of the source.

Tests used:
[1] = tested on: Huh7.5 cells; test: HCV infectivity titers (FFU assay) of culture supernatant after RNA transfection or viral passage; assay type: cell-based, human
Experimental: Transfection and infection of Huh7.5 cells. The human hepatoma cell line Huh7.5 was maintained as described. Cells were plated in 6-well plates (˜3.5×10^5 cells/well) ˜24 hours before RNA transfection or viral infection, reaching 80-90% confluence at the time of inoculation. RNA transfection and viral infection were performed as previously described. The transfected or infected cultures were incubated for ˜16 hours, and sub-cultured every 2-3 days; culture supernatant was collected, filtered (0.45 μm), and stored at […] until analysis.
Analysis of HCV in cultured cells. […] Percentage of HCV antigen positive cells in the culture was determined with fluorescence microscopy. Culture supernatants were collected when 80% of cells were HCV antigen positive (peak infection) and HCV infectivity titers were determined by an FFU assay using a combination of C7-50 and 9E10, as previously described. […] The number of FFU was automatically counted with an ImmunoSpot Series 5 UV Analyzer with customized software (CTL Europe GmbH). HCV RNA titers in the culture supernatant were determined using real time RT-PCR TaqMan method. Core antigen levels were determined by the Architect HCV Ag detection system (Abbott) following manufacturer's instructions. Whole ORF sequences of passaged viruses were determined using procedures previously described for the sequencing of H77C and JFH1 genomes.

[2] = tested on: CD81-deficient S29 cells; test: Single-cycle production assay: intra- and extracellular infectivity titers and core levels; assay type: cell-based, human; conditions: 48 hours after transfection
Experimental: Determination of intra- and extra-cellular HCV core levels and infectivity titers. For single-cycle production assays, an Huh7-derived CD-81 deficient cell line S29 was transfected with HCV RNA and intracellular HCV core levels were measured 4 and 48 hours post transfection. Additionally, intra- and extra-cellular HCV infectivity titers, as well as extracellular HCV core concentration, were determined 48 hours post transfection, as described previously. Briefly, for this assay, S29 cells were seeded in 6 well plates (˜3.5×10^5 cells/well) 24 hours prior to transfection. Plasmids of the different full-length clones were digested with XbaI (New England Biolabs, NEB) for linearization and treated with Mung Bean nuclease (NEB). HCV RNA was generated by in vitro transcription using T7 RNA polymerase (Promega). […] RNA was quantified using spectrophotometry (NanoDrop) and 10 μg of RNA was used for transfection with Lipofectamine 2000 (Invitrogen). […] Both, intra- and extra-cellular core antigen levels were determined by the Architect HCV Ag detection system (Abbott) following the manufacturer's instructions. […] Specific dilutions were analyzed in triplicate for HCV infectivity titers, and the FFU was counted using an ImmunoSpot Series 5 UV Analyzer with customized software (CTL Europe GmbH), and confirmed by manual count. […]

Substance: HCV1_LSGF/S399F/TNm/4m: full-length HCV-1 recombinant with LSGF/S399F/TNm plus A970T/I1312V/C2419R/A2919T
- day at which HCV infectivity titers were first detectable ([1]; after transfection of Huh7.5 cells, detection limit 10^2.4 FFU/ml): 4 days
- infectivity titers compared with HCV1cc ([1]; transfected Huh7.5 cells): slightly lower than those of HCV1cc; also recorded: close to those of HCV1cc
- extracellular infectivity titers [2]: comparable to those of HCV1cc
